Experimental data from patent US20250295763A1 (priority 2024, published 2025).
Like-named read-outs stand apart in the source and are kept apart here. Peptide text beside a SMILES is read from it. * marks the point of attachment. X1 = CCCCCCCCCCCCCCCC(=O)OCC(C*)OC(=O)CCCCCCCCCCCCCCC

Columns and labels:
H3N2 = format: in vivo, C57BL/6 mice
[1] = for Average body weight change (%) Post-dose 1 D 1 / Body weight change (%) Post-dose 1 D 1: i.m. Days 0 and 14, 0.3 mcg H3N2; for Average body weight change (%) Post-dose 1 D 2 / Average body weight change (%) Post-dose 1 D 14 / Average body weight change (%) Post-dose 2 D 15 / Average body weight change (%) Post-dose 2 D 16 / Average body weight change (%) Post-dose 2 D 21 / Body weight change (%) Post-dose 1 D 2 / Body weight change (%) Post-dose 1 D 14 / Body weight change (%) Post-dose 2 D 15 / Body weight change (%) Post-dose 2 D 16 / Body weight change (%) Post-dose 2 D 21: same groups
[2] = Table 4, after the boost (day 28), 5 mcg TLR4 agonist / 50 mcg Synsap, 0.3 mcg H3N2
[3] = Table 3, 5/50 mcg TLR4 agonist/Synsap, alone: 5 mcg 3D-6A-PHAD, 5 mcg EcML, 10 mcg TLR4-1, 50 mcg Synsap, 5/5 mcg AS01B
[4] = Table 8, after the boost (day 28), 10 mcg R848 with 2, 10, 50 or 100 mcg Synsap 14, 0.3 mcg H3N2
[5] = Table 7, 10 mcg R848 with 2, 10, 50 or 100 mcg Synsap 14
[6] = Table 6, after the boost (day 28), 100 mcg Synsap 5, 10 mcg Pam3CSK4, 0.3 mcg H3N2
[7] = Table 5, 100 mcg Synsap 5, 10 mcg Pam3CSK4

CCCCCCCCCCCCCC(=O)O[C@H](CCCCCCCCCCC)CC(=O)OC1C(NC(=O)C[C@@H](CCCCCCCCCCC)OC(=O)CCCCCCCCCCC)[C@H](OCC2O[C@H](O)C(NC(=O)C[C@H](O)CCCCCCCCCCC)C(OC(=O)C[C@H](O)CCCCCCCCCCC)[C@@H]2O)OC(CO)[C@H]1OP(=O)(O)O (stereo partly drawn) [EcML, reference compound]
HI titers GMT mean (H3N2; [2]): 403.2
HI titers Fold (compare to AS01B) (H3N2; Table 4, day 28): 0.3
HI titers Fold (compare to H3N2) (H3N2; Table 4, day 28): 2.5
Average body weight change (%) Post-dose 1 D 1 [1, 3]: −3.607%
Average body weight change (%) Post-dose 1 D 2 ([1]; Table 3): −1.832%
Average body weight change (%) Post-dose 1 D 14 ([1]; Table 3): 7.914%
Average body weight change (%) Post-dose 2 D 15 ([1]; Table 3): −3.002%
Average body weight change (%) Post-dose 2 D 16 ([1]; Table 3): −0.735%
Average body weight change (%) Post-dose 2 D 21 ([1]; Table 3): 1.468%

Poly(I:C) [reference compound]
HI titer Fold (compare to H3N2) (H3N2; mouse, in vivo): 1
HI titer Fold (compare to SynSap 21) (H3N2; mouse, in vivo): 0.5
HI titer Fold (compare to TLR3) (H3N2; mouse, in vivo): 0.3299
HI titer GMT mean (H3N2; mouse, in vivo): 640

CC1O[C@@H](OC(=O)[C@]23CCC(C)(C)CC2C2=CCC4C5(C)CC[C@H](O[C@@H]6O[C@H](C(=O)NCCCCCCCCc7ccc(Oc8ccccc8)cc7)[C@@H](O)[C@H](O)[C@H]6O)[C@](C)(C=O)[C@@H]5CC[C@]4(C)C2(C)CC3O)C(O[C@@H]2OC(C)[C@H](O[C@@H]3OC[C@@H](O)[C@H](O)C3O)[C@H](O)C2O)[C@@H](O)[C@H]1O (stereo partly drawn) [Synsap 3]
HI titers GMT mean (H3N2; [2]): 192
HI titers Fold (compare to AS01B) (H3N2; Table 4, day 28): 0.15
HI titers Fold (compare to H3N2) (H3N2; Table 4, day 28): 1.2
Average body weight change (%) Post-dose 1 D 1 ([1]; Table 1, 5 mcg 3D-PHAD with 5, 50, 75 or 100 mcg Synsap 3, Synsap 3 alone 50 mcg): 2.176%
Average body weight change (%) Post-dose 1 D 2 ([1]; Table 1): 2.174%
Average body weight change (%) Post-dose 1 D 14 ([1]; Table 1): 6.946%
Average body weight change (%) Post-dose 2 D 15 ([1]; Table 1): −0.739%
Average body weight change (%) Post-dose 2 D 16 ([1]; Table 1): 1.208%
Average body weight change (%) Post-dose 2 D 21 ([1]; Table 1): 2.329%
Average body weight change (%) Post-dose 1 D 1 [1, 3]: 2.176%
Average body weight change (%) Post-dose 1 D 2 ([1]; Table 3): 2.174%
Average body weight change (%) Post-dose 1 D 14 ([1]; Table 3): 6.946%
Average body weight change (%) Post-dose 2 D 15 ([1]; Table 3): −0.739%
Average body weight change (%) Post-dose 2 D 16 ([1]; Table 3): 1.208%
Average body weight change (%) Post-dose 2 D 21 ([1]; Table 3): 2.329%

COc1ccc(CCCCCCCCNC(=O)[C@H]2O[C@@H](O[C@H]3CCC4(C)C5CC=C6C7CC(C)(C)CC[C@]7(C(=O)O[C@@H]7OC(C)[C@H](O)[C@H](O)C7O[C@@H]7OC(C)[C@H](O[C@@H]8OC[C@@H](O)[C@H](O)C8O)[C@H](O)C7O)C(O)CC6(C)[C@@]5(C)CC[C@H]4[C@@]3(C)C=O)[C@H](O)[C@@H](O)[C@@H]2O)cc1 (stereo partly drawn) [Synsap 1]
HI titers GMT mean (H3N2; [2]): 320
HI titers Fold (compare to AS01B) (H3N2; Table 4, day 28): 0.25
HI titers Fold (compare to H3N2) (H3N2; Table 4, day 28): 2
Average body weight change (%) Post-dose 1 D 1 [1, 3]: −1.096%
Average body weight change (%) Post-dose 1 D 2 ([1]; Table 3): −1.736%
Average body weight change (%) Post-dose 1 D 14 ([1]; Table 3): 3.753%
Average body weight change (%) Post-dose 2 D 15 ([1]; Table 3): 2.417%
Average body weight change (%) Post-dose 2 D 16 ([1]; Table 3): −1.393%
Average body weight change (%) Post-dose 2 D 21 ([1]; Table 3): 6.148%

CC1O[C@@H](OC2[C@H](OC(=O)[C@]34CCC(C)(C)CC3C3=CCC5C6(C)CC[C@H](O[C@@H]7O[C@H](C(=O)NCCCCCCCCc8ccc(Oc9ccc(F)cc9)cc8)[C@@H](O)[C@H](O)[C@H]7O)[C@](C)(C=O)[C@@H]6CC[C@]5(C)C3(C)CC4O)OC[C@H](O)[C@H]2O)C(O)[C@@H](O)[C@H]1O[C@@H]1OC[C@@H](O)[C@H](O)C1O (stereo partly drawn) [Synsap 14]
HI titer GMT mean (H3N2; [4]): 192
HI titer Fold (compare to H3N2 alone) (H3N2; Table 8, day 28): 1.2
HI titer Fold (compare to R848 treated group) (H3N2; Table 8, day 28): 1.0
HI titer Fold (compare to SynSap 14 treated group) (H3N2; Table 8, day 28): 1.0
Body weight change (%) Post-dose 1 D 1 [1, 5]: −1.769%
Body weight change (%) Post-dose 1 D 2 ([1]; Table 7): −0.704%
Body weight change (%) Post-dose 1 D 14 ([1]; Table 7): 3.586%
Body weight change (%) Post-dose 2 D 15 ([1]; Table 7): −0.277%
Body weight change (%) Post-dose 2 D 16 ([1]; Table 7): −0.654%
Body weight change (%) Post-dose 2 D 21 ([1]; Table 7): 3.064%

CCCCCCCCCCCCCCCC(=O)OCC(CSC[C@H](N)C(=O)N[C@@H](CO)C(=O)N[C@@H](CCCCN)C(=O)N[C@@H](CCCCN)C(=O)N[C@@H](CCCCN)C(=O)N[C@@H](CCCCN)C(=O)O)OC(=O)CCCCCCCCCCCCCCC (stereo partly drawn) [Pam3CSK4, reference compound] (H-C(X1)SKKKK-OH)
HI titers GMT mean (H3N2; [6]): 2176
HI Titers Fold (compare to CpG1018) (H3N2; Table 6, day 28): 1.0
HI Titers Fold (compare to SynSap 17) (H3N2; Table 6, day 28): 1.1
HI titers Fold (compare to H3N2) (H3N2; Table 6, day 28): 14
Body weight change (%) Post-dose 1 D 1 [1, 7]: −0.996%
Body weight change (%) Post-dose 1 D 2 ([1]; Table 5): 2.635%
Body weight change (%) Post-dose 1 D 14 ([1]; Table 5): 6.308%
Body weight change (%) Post-dose 2 D 15 ([1]; Table 5): −0.998%
Body weight change (%) Post-dose 2 D 16 ([1]; Table 5): 0.169%
Body weight change (%) Post-dose 2 D 21 ([1]; Table 5): 4.551%

CCCCCCCCCCCCCC(=O)O[C@H](CCCCCCCCCCC)CC(=O)NC1C(OC(=O)C[C@@H](CCCCCCCCCCC)OC(=O)CCCCCCCCCCCCC)[C@H](OP(=O)(O)O)C(CO)O[C@H]1OCC1O[C@H](O)C(NC(=O)C[C@@H](CCCCCCCCCCC)OC(=O)CCCCCCCCCCCCC)C(O)[C@@H]1O.N (stereo partly drawn) [Synsap 3D-6A-PHAD, reference compound]
HI titers GMT mean (H3N2; [2]): 806.3
HI titers Fold (compare to AS01B) (H3N2; Table 4, day 28): 0.6
HI titers Fold (compare to H3N2) (H3N2; Table 4, day 28): 5.0
Average body weight change (%) Post-dose 1 D 1 [1, 3]: −5.362%
Average body weight change (%) Post-dose 1 D 2 ([1]; Table 3): −2.900%
Average body weight change (%) Post-dose 1 D 14 ([1]; Table 3): 6.215%
Average body weight change (%) Post-dose 2 D 15 ([1]; Table 3): −1.147%
Average body weight change (%) Post-dose 2 D 16 ([1]; Table 3): 0.463%
Average body weight change (%) Post-dose 2 D 21 ([1]; Table 3): 2.331%

CCOCc1nc2c(N)nc3ccccc3c2n1CC(C)(C)O [Synsap R848, Resiquimod, reference compound]
HI titer GMT mean (H3N2; [4]): 183.8
HI titer Fold (compare to H3N2 alone) (H3N2; Table 8, day 28): 1.1
HI titer Fold (compare to R848 treated group) (H3N2; Table 8, day 28): 1.0
HI titer Fold (compare to SynSap 14 treated group) (H3N2; Table 8, day 28): 1.0
Body weight change (%) Post-dose 1 D 1 [1, 5]: −3.012%
Body weight change (%) Post-dose 1 D 2 ([1]; Table 7): −0.416%
Body weight change (%) Post-dose 1 D 14 ([1]; Table 7): 5.224%
Body weight change (%) Post-dose 2 D 15 ([1]; Table 7): −4.078%
Body weight change (%) Post-dose 2 D 16 ([1]; Table 7): −0.804%
Body weight change (%) Post-dose 2 D 21 ([1]; Table 7): 1.856%

CC1O[C@@H](OC(=O)[C@]23CCC(C)(C)CC2C2=CCC4C5(C)CC[C@H](O[C@@H]6O[C@H](C(=O)NCCCCCCCCc7ccc(Oc8ccccc8)cc7)[C@@H](O)[C@H](O)[C@H]6O)[C@](C)(C=O)[C@@H]5CC[C@]4(C)C2(C)CC3O)C(O[C@@H]2OC(C)[C@H](O[C@@H]3OC[C@@H](O)[C@H](O)C3O)[C@H](O[C@@H]3OC(CO)[C@@H](O)[C@H](O)C3O)C2O)[C@@H](O)[C@H]1O (stereo partly drawn) [Synsap 17]
HI titer GMT mean (H3N2; Table 10, after the boost (day 28), CpG 1018 / Synsap 17 ratios, 0.3 mcg H3N2): 183.8
HI titer Fold (compare to CpG1018) (H3N2; Table 10, day 28): 0.6
HI titer Fold (compare to H3N2) (H3N2; Table 10, day 28): 1.1
HI titer Fold (compare to Synsap 17) (H3N2; Table 10, day 28): 1.0
Body weight change (%) Post-dose 1 D 1 ([1]; Table 9, 10 mcg CpG 1018 with 10, 50, 75 or 100 mcg Synsap 17, or 50 mcg CpG 1018 with 10 mcg Synsap 17): −1.769%
Body weight change (%) Post-dose 1 D 2 ([1]; Table 9): −0.704%
Body weight change (%) Post-dose 1 D 14 ([1]; Table 9): 3.586%
Body weight change (%) Post-dose 2 D 15 ([1]; Table 9): −0.277%
Body weight change (%) Post-dose 2 D 16 ([1]; Table 9): −0.654%
Body weight change (%) Post-dose 2 D 21 ([1]; Table 9): 2.921%

CC1O[C@@H](OC(=O)[C@]23CCC(C)(C)CC2C2=CCC4C5(C)CC[C@H](O[C@@H]6O[C@H](C(=O)NCCCCCCCCc7ccc(N8CCOCC8)cc7)[C@@H](O)[C@H](O)[C@H]6O)[C@](C)(C=O)[C@@H]5CC[C@]4(C)C2(C)CC3O)C(O[C@@H]2OC(C)[C@H](O[C@@H]3OC[C@@H](O)[C@H](O)C3O)[C@H](O)C2O)[C@@H](O)[C@H]1O (stereo partly drawn) [Synsap 5]
HI titers GMT mean (H3N2; [6]): 2048
HI Titers Fold (compare to CpG1018) (H3N2; Table 6, day 28): 0.9
HI Titers Fold (compare to SynSap 17) (H3N2; Table 6, day 28): 1.0
HI titers Fold (compare to H3N2) (H3N2; Table 6, day 28): 13
Body weight change (%) Post-dose 1 D 1 [1, 7]: −3.166%
Body weight change (%) Post-dose 1 D 2 ([1]; Table 5): 1.523%
Body weight change (%) Post-dose 1 D 14 ([1]; Table 5): 4.909%
Body weight change (%) Post-dose 2 D 15 ([1]; Table 5): −0.174%
Body weight change (%) Post-dose 2 D 16 ([1]; Table 5): 3.144%
Body weight change (%) Post-dose 2 D 21 ([1]; Table 5): 7.000%
